Our source for the IC50 values is patent publication US20220089592A1, “IMIDAZO[1,2-A]PYRIDINYL DERIVATIVES AS IRAK4 INHIBITORS” (priority 2019, published 2022).

For this assay, the target named is T1, IRAK4 (Homo sapiens, UniProt Q9NWZ3).
T1 sequence (Q9NWZ3 1-460): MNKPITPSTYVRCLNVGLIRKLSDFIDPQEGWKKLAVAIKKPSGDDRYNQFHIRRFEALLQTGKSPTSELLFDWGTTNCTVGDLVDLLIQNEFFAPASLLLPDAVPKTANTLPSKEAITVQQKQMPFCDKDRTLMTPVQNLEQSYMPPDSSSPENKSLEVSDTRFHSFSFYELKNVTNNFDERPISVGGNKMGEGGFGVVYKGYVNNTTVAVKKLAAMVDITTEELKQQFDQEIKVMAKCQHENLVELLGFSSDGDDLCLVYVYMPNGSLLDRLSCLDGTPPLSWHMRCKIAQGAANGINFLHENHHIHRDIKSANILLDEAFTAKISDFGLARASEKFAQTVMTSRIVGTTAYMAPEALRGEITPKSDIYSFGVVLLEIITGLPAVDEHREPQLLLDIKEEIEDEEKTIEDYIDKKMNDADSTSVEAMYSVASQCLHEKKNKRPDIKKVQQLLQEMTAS
Kind of assay: 2-hour 1 mM ATP IRAK4 Biochemical assay (as above, but with 100 pM IRAK4 and 1 mM ATP). Conditions: IRAK4 MSD BIOCHEMICAL (1 mM ATP) IC50 (μM), 100 pM IRAK4, 2 hours. The gist of the method: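 MSD electrochemiluminescence read-out: biotinylated peptide product bound to streptavidin plates, probed with anti-P-Thr rabbit antibody and Sulfo-Tag goat anti-rabbit. Kinase reaction used 1 mM ATP and 100 pM IRAK4 over 2 hours before EDTA quench.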
As usually defined, the IC50 is the concentration needed to halve the response being measured. A low value points to inhibition by little substance. `CCn1ccc(C(=O)Nc2cn3cc(C4CCOCC4)nc3c(OC)n2)n1` [Example 463, 1-ethyl-N-(8-methoxy-2-(tetrahydro-2H-pyran-4-yl)imidazo[1,2-a]pyrazin-6-yl)-1H-pyrazole-3-carboxamide 2,2,2-trifluoroacetate] had an IC50 of 0.104 µM.

In turn, `COc1nc2nc(C34COC(C)(C3)C4)cn2cc1NC(=O)c1cccc(C(F)F)n1` [Example 567, 6-(difluoromethyl)-N-(7-methoxy-2-(1-methyl-2-oxabicyclo[2.1.1]hexan-4-yl)imidazo[1,2-a]pyrimidin-6-yl)picolinamide 2,2,2-trifluoroacetate] yielded an IC50 of 0.008 µM.

Molecule `CC(C)Oc1nc2nc(C3CCOCC3)cn2cc1NC(=O)c1cccc2c1OCC2(F)F` [Example 487, 3,3-difluoro-N-(7-isopropoxy-2-(tetrahydro-2H-pyran-4-yl)imidazo[1,2-a]pyrimidin-6-yl)-2,3-dihydrobenzofuran-7-carboxamide] registered an IC50 of 0.001 µM.

`COc1cccc(C(=O)Nc2cn3cc(C45COC(C)(C4)C5)nc3c(F)c2OC(C)C)n1` [Example 426, N-(8-fluoro-7-isopropoxy-2-(1-methyl-2-oxabicyclo[2.1.1]hexan-4-yl)imidazo[1,2-a]pyridin-6-yl)-6-methoxypicolinamide] showed a 50% inhibitory concentration (IC50) of 0.002 µM.

On to `COc1nc(NC(=O)c2cccc(C(F)(F)F)n2)cn2cc(C3CCCOC3)nc12` (single isomer, unassigned) [Example 300, N-(8-methoxy-2-(tetrahydro-2H-pyran-3-yl)imidazo[1,2-a]pyrazin-6-yl)-6-(trifluoromethyl)picolinamide], for which the IC50 came to 0.005 µM.

Regarding `COc1c(Cl)c(NC(=O)c2cccc(C(F)F)n2)cn2cc(C3CCOCC3)nc12` [Example 331, N-(7-chloro-8-methoxy-2-(tetrahydro-2H-pyran-4-yl)imidazo[1,2-a]pyridin-6-yl)-6-(difluoromethyl)picolinamide], the 50% inhibitory concentration (IC50) came out at 0.031 µM.

On to `COc1nc(NC(=O)c2cccc3c2OCC3)cn2cc(C34COC(C)(C3)C4)nc12` [Example 445, N-(8-methoxy-2-(1-methyl-2-oxabicyclo[2.1.1]hexan-4-yl)imidazo[1,2-a]pyrazin-6-yl)-2,3-dihydrobenzofuran-7-carboxamide 2,2,2-trifluoroacetate], for which 0.012 µM corresponded to half-maximal inhibition (IC50).

`COc1cc(NC(=O)c2cccc(C(F)F)n2)cn2cc(C3CCCOC3)nc12` (single isomer, unassigned) [Example 269, 6-(difluoromethyl)-N-(8-methoxy-2-(tetrahydro-2H-pyran-3-yl)imidazo[1,2-a]pyridin-6-yl)picolinamide] had an IC50 of 0.004 µM.

In turn, `CC(C)Oc1cc2nc(C3CC3)cn2cc1NC(=O)c1ccn(C(F)F)n1` [Example 528, N-(2-cyclopropyl-7-isopropoxyimidazo[1,2-a]pyridin-6-yl)-1-(difluoromethyl)-1H-pyrazole-3-carboxamide] yielded a concentration for half-maximal inhibition (IC50) of 0.004 µM.

Turning to `CC(C)Oc1c(NC(=O)c2ccn(C)n2)cn2cc(C34CCC(C)(C3)OC4)nc2c1F` (stereo not shown) [Example 325, N-(8-fluoro-7-isopropoxy-2-(1-methyl-2-oxabicyclo[2.2.1]heptan-4-yl)imidazo[1,2-a]pyridin-6-yl)-1-methyl-1H-pyrazole-3-carboxamide], the half-maximal inhibitory concentration (IC50) came to 0.002 µM.

The molecule `COc1nc(NC(=O)c2cccc(C(F)(F)F)n2)cn2cc(C3CCCOC3)nc12` (single isomer, unassigned) [Example 299, N-(8-methoxy-2-(tetrahydro-2H-pyran-3-yl)imidazo[1,2-a]pyrazin-6-yl)-6-(trifluoromethyl)picolinamide] gave an IC50 of 0.007 µM.

In turn, `CC12CC(c3cn4cc(NC(=O)c5cccc6c5OCC6)cc(OC(F)F)c4n3)(CO1)C2` [Example 421, N-(8-(difluoromethoxy)-2-(1-methyl-2-oxabicyclo[2.1.1]hexan-4-yl)imidazo[1,2-a]pyridin-6-yl)-2,3-dihydrobenzofuran-7-carboxamide 2,2,2-trifluoroacetate] displayed an IC50 of 0.018 µM.

`CCc1cccc(C(=O)Nc2cn3cc(C4CCOCC4)nc3cn2)n1` [Example 438, 6-ethyl-N-(2-(tetrahydro-2H-pyran-4-yl)imidazo[1,2-a]pyrazin-6-yl)picolinamide]: 0.007 µM corresponded to half-maximal inhibition (IC50).

Regarding `CC(C)Oc1c(NC(=O)c2ccnc3ccnn23)cn2cc(C34COC(C)(C3)C4)nc2c1F` [Example 433, N-(8-fluoro-7-isopropoxy-2-(1-methyl-2-oxabicyclo[2.1.1]hexan-4-yl)imidazo[1,2-a]pyridin-6-yl)pyrazolo[1,5-a]pyrimidine-7-carboxamide], the IC50 amounted to 0.013 µM.

Turning to `COc1nc(NC(=O)c2cccc(C(F)F)n2)cn2cc(C3CCOC(C)(C)C3)nc12` (stereo not shown) [Example 560, 6-(difluoromethyl)-N-(2-(2,2-dimethyltetrahydro-2H-pyran-4-yl)-8-methoxyimidazo[1,2-a]pyrazin-6-yl)picolinamide 2,2,2-trifluoroacetate], 0.002 µM corresponded to half-maximal inhibition (IC50).

Consider `Cc1cccc(C(=O)Nc2cn3cc(C45COC(C)(C4)C5)nc3c(F)c2OC(C)C)c1F` [Example 425, 2-fluoro-N-(8-fluoro-7-isopropoxy-2-(1-methyl-2-oxabicyclo[2.1.1]hexan-4-yl)imidazo[1,2-a]pyridin-6-yl)-3-methylbenzamide 2,2,2-trifluoroacetate], for which inhibition was half-maximal at 0.003 µM (IC50).

In turn, `CCOc1nc(NC(=O)c2cccc(C)n2)cn2cc(C3CCOCC3)nc12` [Example 474, N-(8-ethoxy-2-(tetrahydro-2H-pyran-4-yl)imidazo[1,2-a]pyrazin-6-yl)-6-methylpicolinamide 2,2,2-trifluoroacetate] displayed a half-inhibitory concentration (IC50) of 0.025 µM.

Consider `CCOc1cc(NC(=O)c2cccc(C(F)F)n2)cn2cc(C34COC(C)(C3)C4)nc12` [Example 414, 6-(difluoromethyl)-N-(8-ethoxy-2-(1-methyl-2-oxabicyclo[2.1.1]hexan-4-yl)imidazo[1,2-a]pyridin-6-yl)picolinamide 2,2,2-trifluoroacetate], for which the concentration for half-maximal inhibition (IC50) worked out at 0.01 µM.

For `CCOc1nc2nc(C34COC(C)(C3)C4)cn2cc1NC(=O)c1cccc(C(F)F)n1` [Example 344, 6-(difluoromethyl)-N-(7-ethoxy-2-(1-methyl-2-oxabicyclo[2.1.1]hexan-4-yl)imidazo[1,2-a]pyrimidin-6-yl)picolinamide], half-maximal inhibition (IC50) required 0.001 µM.

`Cc1nc(C(=O)Nc2cn3cc(C45COC(C)(C4)C5)nc3cc2OC(C)C)co1` [Example 529, N-(7-isopropoxy-2-(1-methyl-2-oxabicyclo[2.1.1]hexan-4-yl)imidazo[1,2-a]pyridin-6-yl)-2-methyloxazole-4-carboxamide] had a concentration for half-maximal inhibition (IC50) of 0.001 µM.

The molecule `COc1ncccc1C(=O)Nc1cc(OC(F)F)c2nc(C34COC(C)(C3)C4)cn2c1` [Example 420, N-(8-(difluoromethoxy)-2-(1-methyl-2-oxabicyclo[2.1.1]hexan-4-yl)imidazo[1,2-a]pyridin-6-yl)-2-methoxynicotinamide 2,2,2-trifluoroacetate] yielded an IC50 of 0.071 µM.

In turn, `COc1nc(NC(=O)c2cccc(C(F)F)n2)cn2cc(C34COCC3C4)nc12` (stereo not shown) [Example 550, N-(2-(3-oxabicyclo[3.1.0]hexan-1-yl)-8-methoxyimidazo[1,2-a]pyrazin-6-yl)-6-(difluoromethyl)picolinamide 2,2,2-trifluoroacetate] gave an IC50 of 0.055 µM.

Molecule `COCC(C)(C)c1cn2cc(NC(=O)c3cccc(C(F)F)n3)c(OC(C)C)cc2n1` [Example 527, 6-(difluoromethyl)-N-(7-isopropoxy-2-(1-methoxy-2-methylpropan-2-yl)imidazo[1,2-a]pyridin-6-yl)picolinamide] came in with a half-maximal inhibitory concentration (IC50) of 0.003 µM.

On to `CCO[C@H]1C[C@H](Oc2cc3nc(C4CCOCC4)cn3cc2NC(=O)c2cccc(C(F)F)n2)C1` [Example 190, 6-(difluoromethyl)-N-(7-((1R*,3R*)-3-ethoxycyclobutoxy)-2-(tetrahydro-2H-pyran-4-yl)imidazo[1,2-a]pyridin-6-yl)picolinamide], for which the IC50 worked out at 0.001 µM.

The molecule `COc1nc(NC(=O)c2cccc(C)c2F)cn2cc(C34CCC(C)(C3)OC4)nc12` (stereo not shown) [Example 467, 2-fluoro-N-(8-methoxy-2-(1-methyl-2-oxabicyclo[2.2.1]heptan-4-yl)imidazo[1,2-a]pyrazin-6-yl)-3-methylbenzamide 2,2,2-trifluoroacetate] had a concentration for half-maximal inhibition (IC50) of 0.051 µM.
